Measured values: US10662146B2, “Prodrugs of fencamfamine” (Praxis Bioresearch, LLC, priority 2015, dated 2020)
Values joined by “and” are separate entries in the source; they are usually repeats but may differ in a detail not shown here. Identical values can stand only once. Like-named read-outs stand apart in the source and are kept apart here.

Experiment: Single dose intravenous PK study in male Sprague Dawley rats (plasma by LC-MS/MS)
Type: in vivo
Conditions: for Plasma concentration of PRX-002 (−) Isomer: PRX-002 (−) Isomer IV 2 mg/kg b.w.
Description: We describe here PK results of prodrugs of PRX-002 (−) or (+) isomers. All doses of prodrugs were administered such that they were equivalent to 5 mg/kg of PRX-002 (−) or (+) for oral studies and 2 mg/kg PRX-002 (−) or (+) for intravenous studies in male Sprague-Dawley (MSD) rats. Higher doses of up to 10 or 15 mg/kg [again equivalent to PRX-002 (−)] were used in some studies (as specified)]. Formulation preparation, dose administration and time of sample collection was as follows.
(§1) Adult male Sprague Dawley Rats aged 8-10 weeks were used for the study. Animals were administered the test item by Intravenous bolus route with a dose of 2 mg/kg body weight at dose volume of 5.0 mL/kg body weight. Under mild isoflurane anesthesia, blood specimens were collected by retro-orbital puncture method using capillary tubes into pre-labeled tubes containing anticoagulant (K2EDTA-2 mg/mL blood) during the next 24 hours of post dose as mentioned in below table. For blood sampling at multiple time points, right and left eyes were used alternatively for blood collection. Collected blood specimens were centrifuged at 4000 rpm, 4° C. for 10 minutes and plasma were separated and stored at −80° C. until analysis.
Blood was collected as outlined in Table 39.2 (IV).
Test item PRX-P4-003 was weighed and transferred to a graduated tube. Then 600 μL of PEG 400 (v/v) was added and vortex mixed thoroughly until the test item was completely dissolved. Then 1.800 mL of Hydroxypropyl-β-cyclodextrin (HPβCD, 50% w/v) was added and vortex mixed thoroughly. The final volume was then made up to 3.600 mL with sterile water for injection (SWFI, v/v) with final formulation strength of 5.16 mgA/mL. […] This formulation was freshly prepared before the administration to animals.
as §1, with “administered with a PRX-P4-003” for “administered the test item”, “of 10” for “of 2”, “of 5” for “of 5.0”
Test item PRX-P5-006 was weighed and transferred to a graduated tube. Then 500 μL of DMSO (v/v) was added vortex mixed thoroughly until the test item was completely dissolved. Then 4000 μL of Hydroxypropyl-β-cyclodextrin (HPβCD, 50% w/v) was added and vortex mixed thoroughly. Then 2500 μL of PEG 400 (v/v) was added and vortex mixed thoroughly. The final volume was then made up to 10000 μL with sterile water for injection (SWFI, v/v) with final formulation strength of 3.97 mg/mL. […] This formulation was freshly prepared before the administration to animals.
as §1, with “administered with a PRX-P5-006” for “administered the test item”, “of 15” for “of 2”, “of 10” for “of 5.0”
The plasma concentrations of fencamfamine were measured by LC-MS/MS over time. […] The release of fencamfamine from the prodrugs varied depending on the chain length of the fatty acid linkers attached to fencamfamine. […]

With `CCCCCCCCCCCCCCCCCC(=O)OC(C)OC(=O)N(CC)C1C2CCC(C2)C1c1ccccc1` (single isomer, unassigned) [PRX-P5-011, N-(1-Octadecanoyloxyethoxycarbonyl)-(+)-N-ethyl-3-phenylbicyclo[2.2.1]heptan-2-amine] the “Plasma concentration of PRX-P5-011” value (PRX-P5-011 IV 2 mg/kg b.w., 0.08 h, individual animals, 2 mg/kg) was 114.77 ng/mL and 37.09 ng/mL and 179.14 ng/mL, the “Plasma concentration of PRX-P5-011” value (PRX-P5-011 IV 2 mg/kg b.w., 0.25 h, individual animals, 2 mg/kg) was 56.47 ng/mL and 17.98 ng/mL and 101.04 ng/mL and the “Plasma concentration of PRX-P5-011” value (PRX-P5-011 IV 2 mg/kg b.w., 0.50 h, individual animals) was 0.00 ng/mL. For the same molecule, the “Plasma concentration of PRX-P5-011” value (PRX-P5-011 IV 2 mg/kg b.w., 1.00 h, individual animals) was 0.00 ng/mL, the “Plasma concentration of PRX-P5-011” value (PRX-P5-011 IV 2 mg/kg b.w., 2.00 h, individual animals) was 0.00 ng/mL and the “Plasma concentration of PRX-P5-011” value (PRX-P5-011 IV 2 mg/kg b.w., 4.00 h, individual animals) was 0.00 ng/mL. The “Plasma concentration of PRX-P5-011” value (PRX-P5-011 IV 2 mg/kg b.w., 6.00 h, individual animals) was 0.00 ng/mL, the “Plasma concentration of PRX-P5-011” value (PRX-P5-011 IV 2 mg/kg b.w., 24.00 h, individual animals) was 0.00 ng/mL and the concentration at 0.08 h (male, Sprague-Dawley, rat, plasma, iv, 2 mg/kg, PRX-P5-011 IV 2 mg/kg b.w., 0.08 h, mean) was 110 ng/mL. For the same molecule, the concentration at 0.25 h (male, Sprague-Dawley, rat, plasma, iv, 2 mg/kg, PRX-P5-011 IV 2 mg/kg b.w., 0.25 h, mean) was 58.5 ng/mL, the concentration at 0.5 h (male, Sprague-Dawley, rat, plasma, iv, 2 mg/kg, PRX-P5-011 IV 2 mg/kg b.w., 0.50 h, individual animals) was 0 ng/mL and the concentration at 0.5 h (male, Sprague-Dawley, rat, plasma, iv, 2 mg/kg, PRX-P5-011 IV 2 mg/kg b.w., 0.50 h, mean) was 0 ng/mL. For the same molecule, the concentration at 1 h (male, Sprague-Dawley, rat, plasma, iv, 2 mg/kg, PRX-P5-011 IV 2 mg/kg b.w., 1.00 h, individual animals) was 0 ng/mL, the concentration at 1 h (male, Sprague-Dawley, rat, plasma, iv, 2 mg/kg, PRX-P5-011 IV 2 mg/kg b.w., 1.00 h, mean) was 0 ng/mL and the concentration at 2 h (male, Sprague-Dawley, rat, plasma, iv, 2 mg/kg, PRX-P5-011 IV 2 mg/kg b.w., 2.00 h, individual animals) was 0 ng/mL. The concentration at 2 h (male, Sprague-Dawley, rat, plasma, iv, 2 mg/kg, PRX-P5-011 IV 2 mg/kg b.w., 2.00 h, mean) was 0 ng/mL, the concentration at 4 h (male, Sprague-Dawley, rat, plasma, iv, 2 mg/kg, PRX-P5-011 IV 2 mg/kg b.w., 4.00 h, individual animals) was 0 ng/mL and the concentration at 4 h (male, Sprague-Dawley, rat, plasma, iv, 2 mg/kg, PRX-P5-011 IV 2 mg/kg b.w., 4.00 h, mean) was 0 ng/mL. It also gave a concentration at 6 h (male, Sprague-Dawley, rat, plasma, iv, 2 mg/kg, PRX-P5-011 IV 2 mg/kg b.w., 6.00 h, individual animals) of 0 ng/mL, a concentration at 6 h (male, Sprague-Dawley, rat, plasma, iv, 2 mg/kg, PRX-P5-011 IV 2 mg/kg b.w., 6.00 h, mean) of 0 ng/mL and a concentration at 24 h (male, Sprague-Dawley, rat, plasma, iv, 2 mg/kg, PRX-P5-011 IV 2 mg/kg b.w., 24.00 h, individual animals) of 0 ng/mL. The concentration at 24 h (male, Sprague-Dawley, rat, plasma, iv, 2 mg/kg, PRX-P5-011 IV 2 mg/kg b.w., 24.00 h, mean) was 0 ng/mL.

With `CCN[C@H]1[C@H]2CC[C@H](C2)[C@@H]1c1ccccc1` [PRX-002 (+) Isomer, (1S,2S,3R,4R)—N-Ethyl-3-phenylbicyclo[2.2.1]heptan-2-amine, reference compound] the AUC(0-inf) (male, Sprague Dawley, rat, plasma, iv, 2 mg/kg, single IV dose 2 mg/kg b.w., mean plasma PK parameters (Table 39.27), read-out: AUCinf) was 268 ± 23.5 ng·h/mL, the AUC(0-t) (male, Sprague Dawley, rat, plasma, iv, 2 mg/kg, single IV dose 2 mg/kg b.w., mean plasma PK parameters (Table 39.27), read-out: AUClast) was 250 ± 15.2 ng·h/mL and the C0 (male, Sprague Dawley, rat, plasma, iv, 2 mg/kg, single IV dose 2 mg/kg b.w., mean plasma PK parameters (Table 39.27), read-out: C0) was 291 ± 61.8 ng/mL. For the same molecule, the clearance (male, Sprague Dawley, rat, plasma, iv, 2 mg/kg, single IV dose 2 mg/kg b.w., mean plasma PK parameters (Table 39.27), read-out: CL) was 125 ± 10.6 mL/min/kg, the Cmax (male, Sprague Dawley, rat, plasma, iv, 2 mg/kg, single IV dose 2 mg/kg b.w., mean plasma PK parameters (Table 39.27), read-out: Cmax) was 234 ± 37.9 ng/mL and the MRT last (male, Sprague Dawley, rat, plasma, iv, 2 mg/kg, single IV dose 2 mg/kg b.w., mean plasma PK parameters (Table 39.27), read-out: MRTlast) was 1.05 ± 0.071 h. The half-life (male, Sprague Dawley, rat, plasma, iv, 2 mg/kg, single IV dose 2 mg/kg b.w., mean plasma PK parameters (Table 39.27), read-out: T1/2 (converted)) was 1.08 ± 0.152 h, the Vd (male, Sprague Dawley, rat, plasma, iv, 2 mg/kg, single IV dose 2 mg/kg b.w., mean plasma PK parameters (Table 39.27), read-out: Vss) was 10.1 ± 0.51 L/kg and the Tmax (male, Sprague Dawley, rat, single IV dose 2 mg/kg b.w., mean plasma PK parameters (Table 39.27), read-out: Tmax) was 4.8 min. For the same molecule, the AUCextrap (single IV dose 2 mg/kg b.w., mean plasma PK parameters (Table 39.27)) was 6.639 ± 2.427%.

In the case of `CCN[C@@H]1[C@@H]2CC[C@@H](C2)[C@H]1c1ccccc1` [PRX-002 (−) Isomer, (1R,2R,3S,4S)—N-Ethyl-3-phenylbicyclo[2.2.1]heptan-2-amine, reference compound], the “Plasma concentration of PRX-002 (−) Isomer” value (0.08 h, mean) is reported as 142.01, the “Plasma concentration of PRX-002 (−) Isomer” value (0.25 h, mean) is reported as 112.59 and the “Plasma concentration of PRX-002 (−) Isomer” value (0.50 h, mean) is reported as 81.21. The “Plasma concentration of PRX-002 (−) Isomer” value (1.00 h, mean) was 58.82, the “Plasma concentration of PRX-002 (−) Isomer” value (2.00 h, mean) was 53.05 and the “Plasma concentration of PRX-002 (−) Isomer” value (4.00 h, mean) was 16.55. For the same molecule, the “Plasma concentration of PRX-002 (−) Isomer” value (6.00 h, mean) was 0.00, the “Plasma concentration of PRX-002 (−) Isomer” value (24.00 h, mean) was 0.00 and the “AUC% extrap of PRX-002 (−) Isomer” value (PRX-002 (−) Isomer IV 2 mg/kg, mean) was 14.056 ± 5.0710%. For the same molecule, the AUC(0-inf) (male, Sprague Dawley, rat, plasma, iv, 2 mg/kg, PRX-002 (−) Isomer IV 2 mg/kg, mean, read-out: AUCinf of PRX-002 (−) Isomer) was 256 ± 44.3 ng·h/mL, the AUC(0-t) (male, Sprague Dawley, rat, plasma, iv, 2 mg/kg, PRX-002 (−) Isomer IV 2 mg/kg, mean, read-out: AUClast of PRX-002 (−) Isomer) was 219 ± 23.9 ng·h/mL and the clearance (male, Sprague Dawley, rat, plasma, iv, 2 mg/kg, PRX-002 (−) Isomer IV 2 mg/kg, mean, read-out: CL of PRX-002 (−) Isomer) was 133 ± 21 mL/min/kg. It also gave a Cmax (male, Sprague Dawley, rat, plasma, iv, 2 mg/kg, PRX-002 (−) Isomer IV 2 mg/kg, mean, read-out: Cmax of PRX-002 (−) Isomer) of 143 ± 1.75 ng/mL, an MRT last (male, Sprague Dawley, rat, plasma, iv, 2 mg/kg, PRX-002 (−) Isomer IV 2 mg/kg, mean, read-out: MRTlast of PRX-002 (−) Isomer) of 1.33 ± 0.118 h and a half-life (male, Sprague Dawley, rat, plasma, iv, 2 mg/kg, PRX-002 (−) Isomer IV 2 mg/kg, mean, read-out: T1/2 of PRX-002 (−) Isomer (converted)) of 1.51 ± 0.223 h. The Vd (male, Sprague Dawley, rat, plasma, iv, 2 mg/kg, PRX-002 (−) Isomer IV 2 mg/kg, mean, read-out: Vss of PRX-002 (−) Isomer) was 15.7 ± 0.339 L/kg and the Tmax (male, Sprague Dawley, rat, plasma, PRX-002 (−) Isomer IV 2 mg/kg, mean, read-out: Tmax of PRX-002 (−) Isomer) was 8.22 ± 5.88 min.
